# Experimental data from patent US20130244995A1, “CALCIUM-SENSING RECEPTOR-ACTIVE COMPOUNDS” (LEO PHARMA A/S, priority 2010, published 2013).
# Biological target: T1, human CaSR (Homo sapiens, UniProt P41180)
# T1 sequence (P41180 20-1078): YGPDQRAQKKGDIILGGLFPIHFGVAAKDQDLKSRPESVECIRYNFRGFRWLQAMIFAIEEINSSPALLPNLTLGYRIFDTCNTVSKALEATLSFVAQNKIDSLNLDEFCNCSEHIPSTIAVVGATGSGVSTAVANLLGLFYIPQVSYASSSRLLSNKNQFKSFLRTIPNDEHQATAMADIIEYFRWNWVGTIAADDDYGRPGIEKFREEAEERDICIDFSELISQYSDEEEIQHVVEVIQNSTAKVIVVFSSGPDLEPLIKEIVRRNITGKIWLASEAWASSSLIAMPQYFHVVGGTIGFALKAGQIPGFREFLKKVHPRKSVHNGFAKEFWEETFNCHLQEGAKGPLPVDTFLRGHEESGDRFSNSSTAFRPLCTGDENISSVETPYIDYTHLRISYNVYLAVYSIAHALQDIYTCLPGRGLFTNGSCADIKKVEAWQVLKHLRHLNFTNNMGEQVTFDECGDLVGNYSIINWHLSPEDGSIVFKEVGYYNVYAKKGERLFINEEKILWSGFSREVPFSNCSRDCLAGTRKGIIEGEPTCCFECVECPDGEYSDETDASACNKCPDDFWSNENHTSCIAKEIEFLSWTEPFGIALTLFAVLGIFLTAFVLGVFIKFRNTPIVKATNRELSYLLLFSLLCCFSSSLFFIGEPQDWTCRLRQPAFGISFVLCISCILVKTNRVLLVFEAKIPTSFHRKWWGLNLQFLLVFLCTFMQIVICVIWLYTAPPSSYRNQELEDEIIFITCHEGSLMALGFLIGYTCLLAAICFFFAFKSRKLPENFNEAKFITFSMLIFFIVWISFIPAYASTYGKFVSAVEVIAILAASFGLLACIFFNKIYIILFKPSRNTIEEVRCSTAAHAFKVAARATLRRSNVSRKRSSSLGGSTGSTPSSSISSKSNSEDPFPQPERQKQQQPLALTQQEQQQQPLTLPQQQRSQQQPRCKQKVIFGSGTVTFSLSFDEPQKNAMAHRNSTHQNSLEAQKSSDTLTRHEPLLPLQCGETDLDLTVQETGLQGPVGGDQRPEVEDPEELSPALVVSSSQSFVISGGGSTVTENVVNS
# Assay: Functional whole cell assay (modulation of human CaSR), IP1 accumulation in CHO-K1 cells
# Format: cell-based
# Conditions: CHO-K1 cells stably expressing human CaSR, final Ca2+ 1.9 mM, IP1 (IP-One htrf)
# Excerpt: The assay investigates a compound's functional ability to act as a biological positive modulator on the human CaSR. Activation of the receptor expressed on CHO-K1 cells is detected through the G alpha q pathway, the activation of phospholipase C and the accumulation of intracellular inositol phosphate (IP) as described earlier [Sandrine Ferry, Bruno Chatel, Robert H. Dodd, Christine Lair, Danielle Gully, Jean-Pierre Maffrand, and Martial Ruat. Effects of Divalent Cations and of a Calcimimetic on Adrenocorticotropic Hormone Release in Pituitary Tumor Cells. Biological and Biophysical Research Comm., 238, 866-873 (1997)]. The human CaSR is stably expressed on a CHO-K1 cell clone, stimulated with a basal level of calcium and challenged with the tested compound. The level of IP1 is determined using the IP-One Terbium htrf kit (Cisbio, France). CHO-K1 cells not transfected with the CaSR fail to elicit an IP1 response upon calcium and/or compound stimulation.
# The ORF coding for the human CaSR (genebank: NM_000388) was acquired from Invitrogen Corp, USA and subsequently cloned into the mammalian expression vector pCDA3.1.
# CHO-K1 cells were transfected using Lipofectamine according to manufacturer's protocol (400.000 cells/well were seeded in a 6-well plate and transfected after 24 hours using 2 μg DNA and 5 μl lipofectamine). After another 24 hours the cells were detached, seeded and subjected to 1mg/ml of G-418. Following 7 days growth single clones were picked, the CaSR expression evaluated using the 5C10 antibody against CaSR, the clones with the highest expression were selected and tested for functional response. The preferred clone was cultured according to standard procedures described in ATCC (American Type Culture Collection) protocols for CHO-K1 with the addition of 500 μg/ml G-418.
# On the assay day, cells were thawed, harvested and resuspended to 4*10^6 cells/ml in stimulation buffer (containing: Hepes 10mM, MgCl2 0.5mM, KCl 4.2 mM, NaCl 146 mM, glucose 5.5 mM, LiCl 50 mM, BSA 0.5% at pH 7.4). Ten μl cell solution was pipetted into wells of a white 384-well plate (Perkin Elmer Optiplate) containing 2 μl compound diluted in assay buffer (containing: Hepes 10 mM, MgCl2 0.5mM, KCl 4.2mM, NaCl 146mM, glucose 5.5 mM, LiCl 50 mM, CaCl2 11.4 mM at pH 7.4), resulting in a final Ca^2+ concentration of 1.9 mM. After compound stimulation for 1 hour at 37° C. and 15 min at room temperature, 10 ul of IP-One assay detection reagent (prepared as described by the IP-One assay kit manufacturer) was added and the plate was incubated for another 1 hour at room temperature. Finally the plate was read using a Perkin Elmer EnVision, according to the protocol supplied by the IP-One assay kit manufacturer. The FRET ratio was calculated by dividing the 665 nm emission signal with that of the 615 nm.
# The molar concentration of a compound that produces 50% of the maximum agonistic response (the […] value) is calculated according to the equation “General sigmoidal curve with Hill slope, a to d” (Equation 1). This model describes a sigmoidal curve with an adjustable baseline. The equation can be used to fit curves where response is either increasing or decreasing with respect to the independent variable, X. […]
# y=(a−d)/(1+(x/c)̂b)+d Equation 1. x=concentration of tested compound […]
# a=min response as compound concentration approaches 0 d=max response as concentration of tested compound is increasing […]
# b=Hill coefficient or curve slope
# Assay results using compounds of the present invention indicate that compounds of the present invention are potent modulators of CaSR, thus making them potentially useful in the treatment of diseases related to kidneys or bones.
row,EC50,SMILES
1,200 to 1000 nM,"COc1cc([C@@H](C)N[C@H]2CC[C@@H](c3ccc(CC(=O)NCCNS(C)(=O)=O)cc3)C2)ccc1F [Compound 102, 2-[4-[(1R,3S)-3-[[(1R)-1-(4-Fluoro-3-methoxy-phenyl)ethyl]amino]-cyclopentyl]phenyl]-N-[2-(methanesulfonamido)ethyl]acetamide; formic acid]"
2,< 200 nM,"COc1cc([C@@H](C)N[C@H]2CC[C@@H](c3ccc(CC(=O)NCCS(N)(=O)=O)cc3)C2)ccc1F [Compound 103, 2-[4-[(1R,3S)-3-[[(1R)-1-(4-Fluoro-3-methoxy-phenyl)ethyl]amino]-cyclopentyl]phenyl]-N-(2-sulfamoylethyl)acetamide; formic acid]"
3,< 200 nM,"C[C@@H](N[C@H]1CC[C@@H](c2ccc(CC(=O)NCCS(N)(=O)=O)cc2)C1)c1cccc2c1OCO2 [Compound 104, 2-[4-[(1R,3S)-3-[[(1R)-1-(1,3-Benzodioxol-4-yl)ethyl]amino]-cyclo-pentyl]-phenyl]-N-(2-sulfamoylethyl)acetamide]"
4,< 200 nM,"CCOc1cccc([C@@H](C)N[C@H]2CC[C@@H](c3ccc(CC(=O)NCCS(N)(=O)=O)cc3)C2)c1 [Compound 106, 2-[4-[(1R,3S)-3-[[(1R)-1-(3-Ethoxyphenyl)ethyl]amino]cyclopentyl]phenyl]-N-(2-sulfamoylethyl)acetamide]"
5,< 200 nM,"COc1cc([C@@H](C)N[C@H]2CC[C@@H](c3ccc(CC(=O)NCCNCCO)cc3)C2)ccc1F [Compound 108, 2-[4-[(1R,3S)-3-[[(1R)-1-(4-Fluoro-3-methoxy-phenyl)ethyl]amino]-cyclopentyl]phenyl]-N-[2-(2-hydroxyethylamino)ethyl]acetamide]"
6,< 200 nM,"COc1cc([C@@H](C)N[C@H]2CC[C@@H](c3ccc(CC(=O)N4CC(O)C4)cc3)C2)ccc1F [Compound 109, 2-[4-[(1R,3S)-3-[[(1R)-1-(4-Fluoro-3-methoxy-phenyl)ethyl]amino]-cyclopentyl]phenyl]-1-(3-hydroxyazetidin-1-yl)ethanone]"
7,< 200 nM,"COc1cc([C@@H](C)N[C@H]2CC[C@@H](c3ccc(CC(=O)N4CCCNCC4)cc3)C2)ccc1F [Compound 110, 1-(1,4-Diazepan-1-yl)-2-[4-[(1R,3S)-3-[[(1R)-1-(4-fluoro-3-methoxy-Phenyl)ethyl]amino]cyclopentyl]phenyl]ethanone]"
8,< 200 nM,"COc1cc([C@@H](C)N[C@H]2CC[C@@H](c3ccc(CC(=O)N4CCC(N)CC4)cc3)C2)ccc1F [Compound 112, 1-(4-Amino-1-piperidyl)-2-[4-[(1R,3S)-3-[[(1R)-1-(4-fluoro-3-methoxy-phenyl)ethyl]amino]cyclopentyl]phenyl]ethanone]"
